Results taken from PMC12067145 (ACS Medicinal Chemistry Letters, 2025).

Assays:
[1] = Rat IV:PBL PK cassette study / in vivo rat clearance; conditions: male, Sprague-Dawley, 0.2 mg/kg
[2] = Liver microsome intrinsic clearance (mouse); assay type: in vitro ADME; conditions: pH 7.4; mouse liver microsomes; read-out: LMS CLINT mouse
Method: After a 5 min preincubation, the reaction was initiated by the addition of NADPH (1 mM). At selected time intervals between 0 ~ 60 min (e.g. 0, 3, 7, 15, 25, 45 and/or 60 min), aliquots were taken and subsequently placed into a 96-well plate containing cold acetonitrile with an internal standard (50 ng/mL carbamazepine). Plates were then centrifuged at 3000 rcf (4 °C) for 10 min, and the supernatant was transferred to a separate 96-well plate and diluted 1:1 with water for LC/MS/MS analysis. The in vitro half-life (T 1/2, min, Eq. 1), intrinsic clearance (CLint, mL/min/kg, Eq. 2), and subsequent predicted hepatic clearance (CLhep, mL/min/kg, Eq. 3) were determined employing the following equations: […]
where k represents the slope from linear regression analysis of the natural log percent remaining of a test compound as a function of incubation time […]
(2) CLint = in vitroT1/2 x mg microsomes x gram liver x kg body wt ascale-up factors: of 20 (human) or 45 (rat) or 87.5 (mouse) […]
where Qh (hepatic blood flow, mL/min/kg) is 21 (human) or 70 (rat) or 90 (mouse).
LC/MS/MS Bioanalysis of Samples from Plasma Protein Binding and Intrinsic Clearance […]
Samples were analyzed on a Thermo Electron TSQ Quantum Ultra triple quad mass spectrometer (San Jose, CA) via electrospray ionization (ESI) with two Themo Electron Accella pumps (San Jose, CA), and a Leap Technologies CTC PAL autosampler (Carrboro, NC). Analytes were separated by gradient elution on a dual column system with two Thermo Hypersil Gold (2.1 x 30 mm, 1.9 µm) columns (San Jose, CA) thermostated at 40 °C. HPLC mobile phase A was 0.1% formic acid in water and mobile phase B was 0.1% formic acid in acetonitrile. The gradient started […]
for 0.2 min; returned to 10% B in 0.1 min. The total run time was 1.3 min and the HPLC flow rate was 0.8 mL/min. While pump 1 ran the gradient method, pump 2 equilibrated the alternate column isocratically at 10% B. Compound optimization, data collection, and processing were performed using Thermo Electron's QuickQuan software (v2.3) and Xcalibur (v2.0.7 SP1). […]

[3] = target: Cav1.2 (Homo sapiens, UniProt Q13936); experiment: Cardiac ion channel MPC selectivity panel; assay type: cell-based
[4] = Aqueous solubility; assay type: physicochemical
[5] = target: Kv1.5 (Homo sapiens, UniProt P22460); experiment: Cardiac ion channel MPC selectivity panel; assay type: cell-based
Chain of Kv1.5 (P22460 whole entry): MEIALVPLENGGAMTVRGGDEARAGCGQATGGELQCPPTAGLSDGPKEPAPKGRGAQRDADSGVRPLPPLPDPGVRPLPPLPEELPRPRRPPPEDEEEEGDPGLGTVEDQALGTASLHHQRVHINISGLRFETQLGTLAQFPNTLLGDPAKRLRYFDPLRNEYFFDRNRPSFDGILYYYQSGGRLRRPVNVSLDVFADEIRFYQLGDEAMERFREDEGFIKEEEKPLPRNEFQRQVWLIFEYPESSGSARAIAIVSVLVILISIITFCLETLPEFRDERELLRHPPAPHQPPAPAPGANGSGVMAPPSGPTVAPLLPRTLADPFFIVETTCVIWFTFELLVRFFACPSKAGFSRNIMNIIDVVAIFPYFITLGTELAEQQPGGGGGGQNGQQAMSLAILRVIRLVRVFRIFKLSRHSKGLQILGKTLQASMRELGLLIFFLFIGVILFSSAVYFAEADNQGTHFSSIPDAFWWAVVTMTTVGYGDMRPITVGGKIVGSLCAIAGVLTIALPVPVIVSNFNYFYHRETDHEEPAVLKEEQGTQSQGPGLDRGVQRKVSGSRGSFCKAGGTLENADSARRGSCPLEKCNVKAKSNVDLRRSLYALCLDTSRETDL

[6] = Mouse PBL (plasma:brain level) study; assay type: in vivo
Method: fortified tube and immediately placed on wet ice. The blood sample was then centrifuged (1700 rcf, 5 minutes, 4 °C) to obtain plasma sample. At the same post-administration time point, a whole brain sample was obtained by rapid dissection, rinsed with PBS, and immediately frozen in individual tissue collection box (dry ice). All brain and plasma samples were stored at -80 °C until
Sample Analysis: Concentrations in plasma and brain homogenates were quantified by liquid chromatography tandem mass spectrometry (LC-MS/MS). Whole brains were homogenized in 3 mL of 70:30 IPA:water in a mini bead beater for 3 min, and centrifuged at 3,500 g for 5 min. 5 uL of the supernatant was diluted in 15 uL of blank plasma for quantification of the analytes. Plasma samples were centrifuged at 3,500 g for 5 min. A standard curve was generated by diluting the analytes DMSO stocks with blank plasma to obtain a final concentration of 10,000 ng/mL followed by a serial dilution down to 0.5 ng/mL. Quality controls were generated by a serial dilution of the 5,000 ng/mL standard curve solution in blank plasma to obtain 3 concentrations of 500, 50, and 5 ng/mL. 20 uL of brain diluted in plasma, plasma, blank plasma, standard curve and QC samples were loaded in a V-bottom 96-well plate. 120 uL of acetonitrile containing 0.05 uM carbamazepine (internal standard) was added to each well and the plate was centrifuged at 3,500 g for 5 min. 60 uL of the supernatant of each well (protein free) was transferred to a new 96-well plate containing 60 uL of water. The plates were sealed for analysis by LC-MS/MS.
Plasma and brain tissue samples originating from in vivo studies were analyzed by electrospray ionization using an AB Sciex Q-TRAP 5500 (Foster City, CA) that was coupled to a Shimadzu LC-20AD pump (Columbia, MD) and a Leap Technologies CTC PAL auto-sampler (Carrboro, NC). Analytes were separated by gradient elution using a C18 column (3 x 50 mm, 3 mm; Fortis Technologies Ltd, Cheshire, UK) that was thermostated at 40 °C. HPLC mobile phase A was 0.1% formic acid in water (pH unadjusted); mobile phase B was 0.1% formic acid in acetonitrile (pH
min, with an isocratic hold for 0.5 min, before transitioning to 10% B over 0.05 min. The column was re-equilibrated (1 min) before the next sample injection. The total run time was 2.55 min, and the HPLC flow rate was 0.5 mL/min. The source temperature was set at 500 °C, and mass spectral analyses were performed using a Turbo-Ion spray source in positive ionization mode (5.0-kV spray voltage) and using multiple-reaction monitoring of transitions specific for the analytes. All data were analyzed using AB Sciex Analyst 1.5.1 software.
Brain plasma concentration ratio (Kp) was calculated by dividing brain concentration by plasma concentration for each animal. Unbound brain to unbound plasma concentration ratio (Kp,uu) is calculated using the following formula: Kp,uu = (Brain ng/g x brain fu)/(plasma ng/mL x plasma

[7] = target: Kir2.1 (Homo sapiens, UniProt P63252); experiment: Cardiac ion channel MPC selectivity panel; assay type: cell-based
Chain of Kir2.1 (P63252 whole entry): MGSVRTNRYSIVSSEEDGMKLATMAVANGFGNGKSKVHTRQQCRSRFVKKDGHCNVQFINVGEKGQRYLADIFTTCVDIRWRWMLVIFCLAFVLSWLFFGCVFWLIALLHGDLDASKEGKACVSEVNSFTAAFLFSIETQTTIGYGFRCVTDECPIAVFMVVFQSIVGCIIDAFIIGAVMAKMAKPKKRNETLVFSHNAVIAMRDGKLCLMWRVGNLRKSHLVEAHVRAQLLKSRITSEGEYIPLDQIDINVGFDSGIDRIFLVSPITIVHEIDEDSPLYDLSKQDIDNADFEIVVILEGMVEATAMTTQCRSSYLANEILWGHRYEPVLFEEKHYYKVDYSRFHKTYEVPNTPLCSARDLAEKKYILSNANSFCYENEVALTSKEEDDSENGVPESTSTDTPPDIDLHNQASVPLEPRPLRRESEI

[8] = Plasma protein binding (mouse); assay type: in vitro ADME; conditions: pH 7.4, read-out: PPB mouse (converted)
Method: 0.3% DMSO - ΔRatio of 1 µM control compound)x100
In vitro Plasma protein binding and Brain homogenate binding: Determination of fraction unbound (f u) in plasma was conducted in vitro via equilibrium dialysis using HTDialysis (HTD) membrane plates. The top half of the plate was filled with 100 uL of Dubelco’s Phosphate Buffered Saline, pH 7.4 (DPBS). Compounds were diluted into plasma from each species (5 µM final concentration), which was aliquoted in triplicate to the ‘bottom half’ of the prepared HTD plate wells. The HTD plate was sealed and incubated for 6 hours at 37 °C. Following incubation, each well (both top and bottom halves) were transferred (20 µL) to the corresponding wells of a 96-shallow-well (V-bottom) plate. The daughter plates were then matrix-matched (DPBS side wells received equal volume of plasma, and plasma side wells received equal volume of DPBS), and extraction solution (120 µL; acetonitrile containing 50 nM carbamazepine as IS) was added to all wells of both daughter plates to precipitate protein and extract test article. The plates were then sealed and centrifuged (3500 rcf) for 10 minutes at ambient temperature. Supernatant (60 µL) from each well of the daughter plates was then transferred to the corresponding wells of new daughter plates (96-shallow-well, V bottom) containing water (Milli-Q, 60 µL/well), and the plates were sealed in preparation for LC-MS/MS analysis (see LC-MS/MS analysis method below).
The unbound fraction (f u) was calculated following the equation below, and mean values for each species were calculated from 3 replicates. A similar approach was used to determine the degree of brain homogenate binding, which employed the same methodology and procedure with the following modifications: 1) a final compound concentration of 1 μM was used, 2) naïve rat brains were homogenized in DPBS (1:3 composition of brain: DPBS, w/w) using a Mini-Bead Beater™ machine in order to obtain brain homogenate, which was then treated in the same manner as the plasma samples in the previously described plasma protein binding assay. Fraction unbound for both plasma and brain samples was determined using Equation 4.

[9] = target: TREK-1 (Mus musculus, UniProt P97438); experiment: Mouse manual patch clamp (MPC); assay type: cell-based
Chain of TREK-1 (P97438 whole entry): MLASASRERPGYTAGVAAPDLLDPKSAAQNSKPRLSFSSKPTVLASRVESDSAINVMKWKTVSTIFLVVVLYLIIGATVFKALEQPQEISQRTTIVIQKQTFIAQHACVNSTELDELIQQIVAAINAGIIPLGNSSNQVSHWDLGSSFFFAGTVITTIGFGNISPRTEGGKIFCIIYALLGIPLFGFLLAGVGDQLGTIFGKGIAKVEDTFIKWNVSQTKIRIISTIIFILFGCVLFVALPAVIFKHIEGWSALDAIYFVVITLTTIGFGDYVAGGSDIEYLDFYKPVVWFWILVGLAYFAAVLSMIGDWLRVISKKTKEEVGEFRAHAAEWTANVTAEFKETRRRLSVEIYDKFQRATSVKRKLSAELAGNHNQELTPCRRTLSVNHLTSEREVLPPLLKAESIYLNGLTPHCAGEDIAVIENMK

[10] = target: Cannabinoid CB1 (Homo sapiens, UniProt P21554); experiment: Eurofins lead profiling screen (radioligand binding)
Chain of Cannabinoid CB1 (P21554 whole entry): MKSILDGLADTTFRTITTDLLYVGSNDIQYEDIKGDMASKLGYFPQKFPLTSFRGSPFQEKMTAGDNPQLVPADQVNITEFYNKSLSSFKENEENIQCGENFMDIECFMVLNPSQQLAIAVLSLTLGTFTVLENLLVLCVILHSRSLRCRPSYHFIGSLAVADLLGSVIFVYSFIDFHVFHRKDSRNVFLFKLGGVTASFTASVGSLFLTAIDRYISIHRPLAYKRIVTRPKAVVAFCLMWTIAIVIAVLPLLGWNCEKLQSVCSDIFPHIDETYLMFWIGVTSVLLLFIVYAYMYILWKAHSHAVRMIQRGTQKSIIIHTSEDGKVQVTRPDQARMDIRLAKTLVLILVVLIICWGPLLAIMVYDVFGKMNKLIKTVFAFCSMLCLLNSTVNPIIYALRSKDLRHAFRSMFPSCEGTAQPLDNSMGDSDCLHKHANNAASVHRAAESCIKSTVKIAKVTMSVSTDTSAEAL

[11] = target: Estrogen ERα (Homo sapiens, UniProt P03372); experiment: as above
Chain of Estrogen ERα (P03372 whole entry): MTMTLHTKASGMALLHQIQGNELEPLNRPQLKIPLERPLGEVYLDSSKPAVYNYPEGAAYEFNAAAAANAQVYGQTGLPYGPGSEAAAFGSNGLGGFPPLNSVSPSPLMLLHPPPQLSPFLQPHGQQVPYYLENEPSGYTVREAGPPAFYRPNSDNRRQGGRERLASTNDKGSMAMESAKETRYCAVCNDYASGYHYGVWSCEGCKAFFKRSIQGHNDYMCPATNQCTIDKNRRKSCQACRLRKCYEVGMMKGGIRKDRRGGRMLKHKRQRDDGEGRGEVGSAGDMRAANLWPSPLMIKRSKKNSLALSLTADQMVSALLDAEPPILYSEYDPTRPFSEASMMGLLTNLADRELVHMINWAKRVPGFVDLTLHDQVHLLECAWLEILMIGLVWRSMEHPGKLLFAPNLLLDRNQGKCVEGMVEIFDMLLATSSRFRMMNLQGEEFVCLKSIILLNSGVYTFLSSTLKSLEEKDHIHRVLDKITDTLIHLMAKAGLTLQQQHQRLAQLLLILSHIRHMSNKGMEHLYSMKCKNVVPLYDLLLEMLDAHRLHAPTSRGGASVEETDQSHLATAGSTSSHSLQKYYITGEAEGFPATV

[12] = test system: Purinergic P2Y; experiment: as above; design: species or system Rat
[13] = target: Prostanoid EP4 (Homo sapiens, UniProt P35408); experiment: as above
Chain of Prostanoid EP4 (P35408 whole entry): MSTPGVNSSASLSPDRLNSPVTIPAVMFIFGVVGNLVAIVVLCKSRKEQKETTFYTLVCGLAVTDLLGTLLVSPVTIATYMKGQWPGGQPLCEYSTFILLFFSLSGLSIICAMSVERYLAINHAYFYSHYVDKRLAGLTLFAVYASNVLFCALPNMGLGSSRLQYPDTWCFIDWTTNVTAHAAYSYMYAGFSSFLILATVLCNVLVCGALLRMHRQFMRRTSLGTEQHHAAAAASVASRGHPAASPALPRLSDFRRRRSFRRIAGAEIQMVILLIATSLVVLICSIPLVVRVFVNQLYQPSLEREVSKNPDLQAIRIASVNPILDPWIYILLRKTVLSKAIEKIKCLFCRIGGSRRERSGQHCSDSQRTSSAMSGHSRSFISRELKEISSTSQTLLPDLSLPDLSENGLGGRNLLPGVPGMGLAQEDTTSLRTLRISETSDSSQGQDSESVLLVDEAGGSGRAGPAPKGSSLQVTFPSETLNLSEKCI

[14] = target: Transporter, Norepinephrine (NET) (Homo sapiens, UniProt P23975); experiment: as above
Chain of Transporter, Norepinephrine (NET) (P23975 whole entry): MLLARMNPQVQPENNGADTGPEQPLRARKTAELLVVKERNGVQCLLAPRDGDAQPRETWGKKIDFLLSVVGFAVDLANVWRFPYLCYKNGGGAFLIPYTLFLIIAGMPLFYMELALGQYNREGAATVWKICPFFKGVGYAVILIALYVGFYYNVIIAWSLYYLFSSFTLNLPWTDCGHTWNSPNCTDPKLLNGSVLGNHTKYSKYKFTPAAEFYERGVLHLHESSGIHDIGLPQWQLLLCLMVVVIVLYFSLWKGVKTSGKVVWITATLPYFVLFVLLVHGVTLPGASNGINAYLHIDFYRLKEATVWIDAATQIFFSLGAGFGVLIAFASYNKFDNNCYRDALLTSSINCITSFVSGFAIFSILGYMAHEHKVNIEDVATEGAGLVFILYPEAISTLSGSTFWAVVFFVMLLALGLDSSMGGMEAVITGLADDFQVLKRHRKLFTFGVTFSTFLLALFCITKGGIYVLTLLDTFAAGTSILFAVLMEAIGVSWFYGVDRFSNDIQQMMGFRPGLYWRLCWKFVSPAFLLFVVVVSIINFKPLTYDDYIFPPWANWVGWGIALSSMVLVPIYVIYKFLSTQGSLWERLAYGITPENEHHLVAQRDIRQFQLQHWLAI

[15] = test system: Glutamate, NMDA, Agonism; experiment: as above; design: species or system Rat
[16] = test system: GABAA, Flunitrazepam, Central; experiment: as above; design: species or system Rat
[17] = target: Adrenergic α1D (Homo sapiens, UniProt P25100); experiment: as above
Chain of Adrenergic α1D (P25100 whole entry): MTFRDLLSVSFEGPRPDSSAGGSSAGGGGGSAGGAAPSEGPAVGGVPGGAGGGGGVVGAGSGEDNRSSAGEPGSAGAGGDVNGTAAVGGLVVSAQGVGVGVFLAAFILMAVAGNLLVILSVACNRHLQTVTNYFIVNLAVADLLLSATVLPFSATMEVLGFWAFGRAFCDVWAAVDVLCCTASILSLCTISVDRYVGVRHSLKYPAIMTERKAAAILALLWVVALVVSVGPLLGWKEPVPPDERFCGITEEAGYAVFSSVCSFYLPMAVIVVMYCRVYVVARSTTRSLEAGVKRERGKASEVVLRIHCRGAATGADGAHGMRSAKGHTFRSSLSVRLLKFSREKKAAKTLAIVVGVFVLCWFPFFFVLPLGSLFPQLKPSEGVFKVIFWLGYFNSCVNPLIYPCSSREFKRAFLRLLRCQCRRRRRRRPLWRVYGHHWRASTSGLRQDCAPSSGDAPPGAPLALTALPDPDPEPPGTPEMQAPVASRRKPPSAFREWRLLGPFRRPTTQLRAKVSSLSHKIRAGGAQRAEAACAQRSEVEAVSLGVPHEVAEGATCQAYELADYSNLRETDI

[18] = target: Adenosine A2A (Homo sapiens, UniProt P29274); experiment: as above
Chain of Adenosine A2A (P29274 whole entry): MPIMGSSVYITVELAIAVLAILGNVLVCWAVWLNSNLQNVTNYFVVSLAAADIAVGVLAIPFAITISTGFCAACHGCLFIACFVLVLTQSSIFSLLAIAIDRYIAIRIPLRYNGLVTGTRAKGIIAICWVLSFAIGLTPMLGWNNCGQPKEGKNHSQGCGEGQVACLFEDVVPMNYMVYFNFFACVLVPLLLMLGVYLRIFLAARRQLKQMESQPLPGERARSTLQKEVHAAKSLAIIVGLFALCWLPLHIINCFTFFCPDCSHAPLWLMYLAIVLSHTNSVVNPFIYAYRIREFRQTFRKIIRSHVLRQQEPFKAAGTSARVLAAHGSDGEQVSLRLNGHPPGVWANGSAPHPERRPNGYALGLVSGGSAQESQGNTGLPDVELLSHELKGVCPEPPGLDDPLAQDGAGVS

## Cc1cc(C#Cc2ccc(F)cc2)cnc1NC(=O)c1cc(NC(=O)OC(C)(C)C)ccc1Cl [Compound 14c]
[1]; iv, in vivo rat plasma clearance, read-out: rat CLp
  clearance at 24 h: 21.2 mL/min/kg
[1]; plasma, rat IV:PBL PK cassette
  half-life at 24 h: 6.78 h
[1]; plasma, rat IV:PBL PK cassette, read-out: volume of distribution
  Vd at 24 h: 6.7 L/kg
[2]
  CLint scaled at 1 µM: 13 mL/min/kg
[3]
  % at 10 μM, Cav1.2: < 50%
[4]
  solubility: < 5 µM
[5]
  % at 10 μM, Kv1.5: < 50%
[6]; CD-1, brain, mouse, 10 mg/kg IP
  Tmax: 4 h
[6]; CD-1 male mouse, 10 mg/kg PO
  Cmax total brain concentration: 252 nM
  brain AUC: 2269 nM·h
[6]; brain, CD-1 male mouse, 10 mg/kg PO
  Tmax: 4 h
[6]; mouse, 10 mg/kg IP
  Cmax total brain exposure: 888 nM
  brain AUC: 12,261 h*nM
[6]; mouse, 10 mg/kg IP, based on mouse brain homogenate binding
  Cmax unbound brain: 5.3 nM
[7]
  % at 10 μM, Kir2.1: < 50%
[8]
  fraction unbound at 6 h, 5 µM: 0.016
[9]
  IC50: 67 nM

## O=C(NCc1ccc(OC(F)(F)F)cc1F)c1ccc2ncnn2c1 [ONO-2920632]
[10]
  inhibition at 10 µM: -23%
[11]
  inhibition at 10 µM: 8%
[12]
  % Inhibition at 10 µM: 1%
[13]
  inhibition at 10 µM: 19%
[14]
  inhibition at 10 µM: 29%
[15]
  % Inhibition at 10 µM: 2%
[16]
  % Inhibition at 10 µM: -9%
[17]
  inhibition at 10 µM: 26%
[18]
  inhibition at 10 µM: 3%
